Assay results as given in ChEMBL document CHEMBL3885881, “DrugMatrix”.

Species on record: Rattus norvegicus
Assay: DrugMatrix - Regimen: Daily Repeat
Format: toxicity, organism-based, Sprague-Dawley
Set-up: regimen Daily Repeat, gender Male, age 6-8 weeks
Conditions: in vivo, po, 12 mg/kg, route oral GAVAGE, dose level Low, vehicle .5 % CMC; for ABSOLUTE BASOPHIL / ABSOLUTE EOSINOPHIL / ABSOLUTE LYMPHOCYTE / ABSOLUTE MONOCYTE / ABSOLUTE SEGMENTED NEUTROPHIL / BASOPHIL / EOSINOPHIL / ERYTHROCYTE COUNT / HEMATOCRIT / HEMOGLOBIN / LEUKOCYTE COUNT / LYMPHOCYTE / MEAN CORPUSCULAR HEMOGLOBIN / MEAN CORPUSCULAR HEMOGLOBIN CONCENTRATION / MEAN CORPUSCULAR VOLUME / MONOCYTE / NEUTROPHIL / NUCLEATED RED BLOOD CELLS / PLATELET COUNT: tissue Blood; for ALANINE AMINOTRANSFERASE / ALBUMIN / ALKALINE PHOSPHATASE / ASPARTATE AMINOTRANSFERASE / BLOOD UREA NITROGEN / CARBON DIOXIDE / CHLORIDE / CHOLESTEROL / CREATINE PHOSPHOKINASE / CREATININE / GLUCOSE / LACTATE DEHYDROGENASE / LIPASE / PHOSPHORUS / POTASSIUM / SODIUM / TOTAL BILIRUBIN / TOTAL PROTEIN / URIC ACID: tissue Plasma

CC(=O)O[C@]1(C(C)=O)CC[C@H]2[C@@H]3C=C(C)C4=CC(=O)CC[C@]4(C)[C@H]3CC[C@@]21C [MEGESTROL ACETATE]
ABSOLUTE BASOPHIL (72 h, time 3 day): 0 CELLS/uL
ABSOLUTE EOSINOPHIL (72 h, time 3 day): 84.67 CELLS/uL
ABSOLUTE LYMPHOCYTE (72 h, time 3 day): 11039.33 CELLS/uL
ABSOLUTE MONOCYTE (72 h, time 3 day): 40 CELLS/uL
ABSOLUTE SEGMENTED NEUTROPHIL (72 h, time 3 day): 1136 CELLS/uL
BASOPHIL (72 h, time 3 day): 0%
EOSINOPHIL (72 h, time 3 day): 0.67%
ERYTHROCYTE COUNT (72 h, time 3 day): 5.83 x10E6/uL
HEMATOCRIT (72 h, time 3 day): 37.03%
HEMOGLOBIN (72 h, time 3 day): 13.83 G/DL
LEUKOCYTE COUNT (72 h, time 3 day): 12.3 x10E3/uL
LYMPHOCYTE (72 h, time 3 day): 89.67%
MEAN CORPUSCULAR HEMOGLOBIN (72 h, time 3 day): 23.77 pg
MEAN CORPUSCULAR HEMOGLOBIN CONCENTRATION (72 h, time 3 day): 37.37 G/DL
MEAN CORPUSCULAR VOLUME (72 h, time 3 day): 63.5 fL
MONOCYTE (72 h, time 3 day): 0.33%
NEUTROPHIL (72 h, time 3 day): 9.33%
NUCLEATED RED BLOOD CELLS (72 h, time 3 day): 0 /100WBC
PLATELET COUNT (72 h, time 3 day): 1299.33 x10E3/uL
ALANINE AMINOTRANSFERASE (72 h, time 3 day): 52 u/L
ALBUMIN (72 h, time 3 day): 4.43 G/DL
ALKALINE PHOSPHATASE (72 h, time 3 day): 394.33 u/L
ASPARTATE AMINOTRANSFERASE (72 h, time 3 day): 80.67 u/L
BLOOD UREA NITROGEN (72 h, time 3 day): 16.33 mg/dL
CARBON DIOXIDE (72 h, time 3 day): 25.33 mmol/L
CHLORIDE (72 h, time 3 day): 103.67 MEQ/L
CHOLESTEROL (72 h, time 3 day): 66.33 mg/dL
CREATINE PHOSPHOKINASE (72 h, time 3 day): 195 u/L
CREATININE (72 h, time 3 day): 0.25 mg/dL
GLUCOSE (72 h, time 3 day): 179.67 mg/dL
LACTATE DEHYDROGENASE (72 h, time 3 day): 177.33 u/L
LIPASE (72 h, time 3 day): 8 u/L
PHOSPHORUS (72 h, time 3 day): 13.6 mg/dL
POTASSIUM (72 h, time 3 day): 6.09 MEQ/L
SODIUM (72 h, time 3 day): 146.33 MEQ/L
TOTAL BILIRUBIN (72 h, time 3 day): 0.27 mg/dL
TOTAL PROTEIN (72 h, time 3 day): 6.43 G/DL
URIC ACID (72 h, time 3 day): 1.73 mg/dL
ABSOLUTE BASOPHIL (120 h, time 5 day): 0 CELLS/uL
ABSOLUTE EOSINOPHIL (120 h, time 5 day): 115.33 CELLS/uL
ABSOLUTE LYMPHOCYTE (120 h, time 5 day): 7823.33 CELLS/uL
ABSOLUTE MONOCYTE (120 h, time 5 day): 0 CELLS/uL
ABSOLUTE SEGMENTED NEUTROPHIL (120 h, time 5 day): 461.33 CELLS/uL
BASOPHIL (120 h, time 5 day): 0%
EOSINOPHIL (120 h, time 5 day): 1.33%
ERYTHROCYTE COUNT (120 h, time 5 day): 5.55 x10E6/uL
HEMATOCRIT (120 h, time 5 day): 36.1%
HEMOGLOBIN (120 h, time 5 day): 13.53 G/DL
LEUKOCYTE COUNT (120 h, time 5 day): 8.4 x10E3/uL
LYMPHOCYTE (120 h, time 5 day): 93.33%
MEAN CORPUSCULAR HEMOGLOBIN (120 h, time 5 day): 24.37 pg
MEAN CORPUSCULAR HEMOGLOBIN CONCENTRATION (120 h, time 5 day): 37.53 G/DL
MEAN CORPUSCULAR VOLUME (120 h, time 5 day): 65.03 fL
MONOCYTE (120 h, time 5 day): 0%
NEUTROPHIL (120 h, time 5 day): 5.33%
NUCLEATED RED BLOOD CELLS (120 h, time 5 day): 0 /100WBC
PLATELET COUNT (120 h, time 5 day): 1160 x10E3/uL
ALANINE AMINOTRANSFERASE (120 h, time 5 day): 48.33 u/L
ALBUMIN (120 h, time 5 day): 4.4 G/DL
ALKALINE PHOSPHATASE (120 h, time 5 day): 429.67 u/L
ASPARTATE AMINOTRANSFERASE (120 h, time 5 day): 75.33 u/L
BLOOD UREA NITROGEN (120 h, time 5 day): 15 mg/dL
CARBON DIOXIDE (120 h, time 5 day): 27.33 mmol/L
CHLORIDE (120 h, time 5 day): 102.33 MEQ/L
CHOLESTEROL (120 h, time 5 day): 63.33 mg/dL
CREATINE PHOSPHOKINASE (120 h, time 5 day): 205 u/L
CREATININE (120 h, time 5 day): 0.16 mg/dL
GLUCOSE (120 h, time 5 day): 151.67 mg/dL
LACTATE DEHYDROGENASE (120 h, time 5 day): 111.33 u/L
LIPASE (120 h, time 5 day): 8.33 u/L
PHOSPHORUS (120 h, time 5 day): 12.33 mg/dL
POTASSIUM (120 h, time 5 day): 5.99 MEQ/L
SODIUM (120 h, time 5 day): 148.33 MEQ/L
TOTAL BILIRUBIN (120 h, time 5 day): 0.3 mg/dL
TOTAL PROTEIN (120 h, time 5 day): 6.2 G/DL
URIC ACID (120 h, time 5 day): 0.93 mg/dL
